The target of one test is T1, PDE4B1 (Homo sapiens, UniProt Q07343).
T1 construct: made in house; host or cells: SF21 insect cells (baculovirus; pCRBac vector), 1000 x g supernatant of homogenate
Put plainly: Inhibition of type 4 phosphodiesterase (PDE4) activity, modified SPA test with recombinant PDE4B1 expressed in SF21 insect cells. Format: biochemical. The settings on record: recombinant PDE4B1, 0.5 μM cAMP, read-out: PDE4B1 inhibitory values [measured as −log IC50 (mol/l)] (converted). On the procedure: Method for Measuring Inhibition of the Type 4 Phosphodiesterase (PDE4) Activity:
The PDE4B1 (GB no. L20966) was a gift of Prof. M. Conti (Stanford University, USA). It was amplified from the original plasmid (pCMV5) via PCR with primers Rb18 (5′-[…]-3′) and Rb10 (5′-[…]-3′) and cloned into the pCRBac vector (Invitrogen, Groningen, NL).
The recombinant baculovirus was prepared by means of homologous recombination in SF9 insect cells. The expression plasmids were cotransfected with Baculo-Gold DNA (Pharmingen, Hamburg) using a standard protocol (Pharmingen, Hamburg). Wt virus-free recombinant virus supernatants were selected using plaque assay methods. After that, high-titre virus supernatants were prepared by amplifying 3 times. PDE4B1 was expressed in SF21 cells by infecting 2×10^6 cells/ml with an MOI (multiplicity of infection) between 1 and 10 in the serum-free medium Insect Express Sf9-S2 (PAA, Pasching, Austria). The cells were cultured at 28° C. for 48-72 hours, after which they were pelleted for 5-10 min at 1000×g and 4° C.
The SF21 insect cells were resuspended, at a concentration of approx. 10^7 cells/ml, in ice-cold (4° C.) homogenization buffer (20 mM Tris, pH 8.2, containing the following additions: 140 mM NaCl, 3.8 mM KCl, 1 mM EGTA, 1 mM MgCl2, 10 mM (3-mercaptoethanol, 2 mM benzamidine, 0.4 mM Pefablock, 10 μM leupeptin, 10 μM pepstatin A, 5 μM trypsin inhibitor) and disrupted by ultrasonication. The homogenate was then centrifuged for 10 min at 1000×g and the supernatant was stored at −80° C. until subsequent use (see below). The protein content was determined by the Bradford method (BioRad, Munich) using BSA as the standard.
PDE4B1 activity was inhibited by the compounds according to the present subject matter in a modified SPA (scintillation proximity assay) test, supplied by Amersham Biosciences (see procedural instructions “phosphodiesterase [3H]cAMP SPA enzyme assay, code TRKQ 7090”), carried out in 96-well microtitre plates (MTP's). The test volume is 100 μl and contains 20 mM Tris buffer (pH 7.4), 0.1 mg/ml of BSA, 5 mM Mg^2+, 0.5 μM cAMP (including about 50,000 cpm of [3H]cAMP), 1 μl of the respective substance dilution in DMSO and sufficient recombinant PDE (1000×g supernatant, see above) to ensure that 10-20% of the cAMP is converted under the said experimental conditions. […] After a preincubation of 5 min at 37° C., the reaction is started by adding the substrate (cAMP) and the assays are incubated for a further 15 min; after that, they are stopped by adding SPA beads (50 μl). In accordance with the manufacturer's instructions, the SPA beads had previously been resuspended in water, but were then diluted 1:3 (v/v) in water; the diluted solution also contains 3 mM IBMX to ensure a complete PDE activity stop. After the beads have been sedimented (>30 min), the MTP's are analyzed in commercially available luminescence detection devices. The corresponding IC50 values of the compounds for the inhibition of PDE4B1 activity are determined from the concentration-effect curves by means of non-linear regression.

The next test concerns the target T2, PDE5A1 (Homo sapiens, UniProt O76074).
T2 construct: from tissue; host or cells: human platelets from fresh donor blood (10,000 x g supernatant of sonicated lysate)
Put plainly: Inhibition of type 5 phosphodiesterase (PDE5) activity, modified SPA test with human platelet lysate. It is filed as biochemical. As to conditions: 0.5 μM cGMP, read-out: PDE5A1 inhibitory values [measured as −log IC50 (mol/l)] (converted). In outline:
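Enzyme source is lysate from human platelets (10,000 g supernatant). Compound preincubated 5 min at 37° C in Tris pH 7.4 containing 1 μM motapizone and 10 nM of a PDE2 inhibitor. Reaction started with 0.5 μM cGMP ([3H] tracer) and run 15 min; SPA read-out, IC50 by non-linear regression.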

T1 sequence (Q07343 whole entry): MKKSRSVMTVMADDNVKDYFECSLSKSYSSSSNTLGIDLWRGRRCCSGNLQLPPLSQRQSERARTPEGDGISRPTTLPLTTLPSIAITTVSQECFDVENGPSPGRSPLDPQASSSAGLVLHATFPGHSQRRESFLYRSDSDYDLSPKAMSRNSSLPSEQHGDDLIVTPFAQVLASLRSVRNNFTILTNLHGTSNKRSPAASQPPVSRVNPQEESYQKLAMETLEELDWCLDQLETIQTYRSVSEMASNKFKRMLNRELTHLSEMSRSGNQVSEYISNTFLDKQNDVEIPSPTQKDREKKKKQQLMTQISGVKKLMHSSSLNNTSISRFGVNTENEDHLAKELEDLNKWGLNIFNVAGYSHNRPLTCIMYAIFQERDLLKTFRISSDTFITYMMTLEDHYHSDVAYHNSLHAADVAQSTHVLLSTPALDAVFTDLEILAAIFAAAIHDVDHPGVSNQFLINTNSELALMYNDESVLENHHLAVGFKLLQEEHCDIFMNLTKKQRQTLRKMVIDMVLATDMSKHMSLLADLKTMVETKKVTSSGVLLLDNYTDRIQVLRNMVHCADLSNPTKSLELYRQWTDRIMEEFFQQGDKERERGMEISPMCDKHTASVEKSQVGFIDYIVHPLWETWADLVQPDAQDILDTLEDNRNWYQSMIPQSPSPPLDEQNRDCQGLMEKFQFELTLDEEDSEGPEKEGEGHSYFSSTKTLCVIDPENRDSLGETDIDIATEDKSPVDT

For `COCC(=O)N[C@H]1CC[C@H](NC(=O)c2c(C)[nH]c3c(-c4cc(C(C)C)ccc4OCC4CC4)ncnc23)CC1` [Example E160, 4-[2-(Cyclopropylmethoxy)-5-(propan-2-yl)phenyl]-N-{trans-4-[(methoxyacetyl)amino]cyclohexyl}-6-methyl-5H-pyrrolo[3,2-d]pyrimidine-7-carboxamide], the values for the IC50 at PDE4B1 and at PDE5A1 were 0.1 to 1 µM and less than 0.001 µM, respectively.

As for `CCC(=O)N[C@H]1CC[C@@H](NC(=O)c2c(C)[nH]c3c(-c4cc(CC)ccc4OCC4CC4)ncnc23)CC1` [Example E152, 4-[2-(Cyclopropylmethoxy)-5-ethylphenyl]-6-methyl-N-[cis-4-(propanoylamino)cyclohexyl]-5H-pyrrolo[3,2-d]pyrimidine-7-carboxamide], the IC50 at PDE4B1 was 0.1 to 1 µM; on PDE5A1, less than 0.001 µM.

As for `CC(=O)N1CCC(NC(=O)c2c(C)[nH]c3c(-c4cc(C)ccc4OCC4CC4)ncnc23)CC1` [Example E81, N-(1-Acetylpiperidin-4-yl)-4-[2-(cyclopropylmethoxy)-5-methylphenyl]-6-methyl-5H-pyrrolo[3,2-d]pyrimidine-7-carboxamide], the IC50 was less than 0.1 µM at PDE4B1 and less than 0.001 µM on PDE5A1.

As for `CCc1ccc(OCC2CC2)c(-c2ncnc3c(C(=O)N[C@H]4CC[C@H](NC(C)=O)CC4)c(C)[nH]c23)c1` [Example E148, N-[trans-4-(Acetylamino)cyclohexyl]-4-[2-(cyclopropylmethoxy)-5-ethylphenyl]-6-methyl-5H-pyrrolo[3,2-d]pyrimidine-7-carboxamide], the IC50 at PDE4B1 was less than 0.1 µM; on PDE5A1, less than 0.001 µM.

For the compound `Cc1ccc(OCC2CC2)c(-c2ncnc3c(C(=O)N[C@H]4CC[C@H](NC(=O)CO)CC4)c(C)[nH]c23)c1` [Example F53, 4-[2-(Cyclopropylmethoxy)-5-methylphenyl]-N-{trans-4-[(hydroxyacetyl)amino]cyclohexyl}-6-methyl-5H-pyrrolo[3,2-d]pyrimidine-7-carboxamide], the figures for the IC50 at PDE4B1 and at PDE5A1 were less than 0.1 µM and less than 0.001 µM, respectively.

Regarding `COCC(=O)N1CCC(NC(=O)c2c(C)[nH]c3c(-c4cc(C)ccc4OCC4CC4)nc(C)nc23)CC1` [Example E171, 4-[2-(Cyclopropylmethoxy)-5-methylphenyl]-N-[1-(methoxyacetyl)piperidin-4-yl]-2,6-dimethyl-5H-pyrrolo[3,2-d]pyrimidine-7-carboxamide], the IC50 was 0.1 to 1 µM at PDE4B1 and less than 0.001 µM at PDE5A1.

As for `COc1ccc(OCC2CC2)c(-c2ncnc3c(C(=O)NC4CCN(C(=O)[C@H](C)O)CC4)c(C)[nH]c23)c1` [Example F42, 4-[2-(Cyclopropylmethoxy)-5-methoxyphenyl]-N-{1-[(2S)-2-hydroxypropanoyl]piperidin-4-yl}-6-methyl-5H-pyrrolo[3,2-d]pyrimidine-7-carboxamide], the results for the IC50 on PDE4B1 and at PDE5A1 were 0.1 to 1 µM and less than 0.001 µM, respectively.

As to `CCc1ccc(OCC2CC2)c(-c2ncnc3c(C(=O)N[C@@H]4CN(C(=O)CO)C[C@H]4O)c(C)[nH]c23)c1` (relative stereo) [Example F97, 4-[2-(Cyclopropylmethoxy)-5-ethylphenyl]-N-[(3R*,4R*)-4-hydroxy-1-(hydroxyacetyl)pyrrolidin-3-yl]-6-methyl-5H-pyrrolo[3,2-d]pyrimidine-7-carboxamide], the IC50 at PDE4B1 was 0.1 to 1 µM; on PDE5A1, 0.001 to 0.01 µM.

In the case of `CCC(=O)N[C@H]1CC[C@H](NC(=O)c2c(C)[nH]c3c(-c4cc(C(F)F)ccc4OCC4CC4)ncnc23)[C@@H](C)C1` (relative stereo) [Example P140, 4-[2-(Cyclopropylmethoxy)-5-(difluoromethyl)phenyl]-6-methyl-N-[(1S*,2S*,4S*)-2-methyl-4-(propanoylamino)cyclohexyl]-5H-pyrrolo[3,2-d]pyrimidine-7-carboxamide], the IC50 on PDE4B1 was less than 0.1 µM; on PDE5A1, less than 0.001 µM.

Regarding `CCC(=O)N[C@H]1CC[C@H](NC(=O)c2c(C)[nH]c3c(-c4cc(C(F)F)ccc4OCC4CC4)ncnc23)C[C@H]1F` (relative stereo) [Example P200, 4-[2-(Cyclopropylmethoxy)-5-(difluoromethyl)phenyl]-N-[(1S*,3R*,4S*)-3-fluoro-4-(propanoylamino)cyclohexyl]-6-methyl-5H-pyrrolo[3,2-d]pyrimidine-7-carboxamide], the IC50 on PDE4B1 is less than 0.1 µM; on PDE5A1, less than 0.001 µM.

Take `CCC(=O)N1CCC(NC(=O)c2c(C)[nH]c3c(-c4cc(C)ccc4OCC4CC4)nc(C)nc23)CC1` [Example E170, 4-[2-(Cyclopropylmethoxy)-5-methylphenyl]-2,6-dimethyl-N-(1-propanoylpiperidin-4-yl)-5H-pyrrolo[3,2-d]pyrimidine-7-carboxamide]: the IC50 on PDE4B1 is 0.1 to 1 µM; at PDE5A1 it was less than 0.001 µM.

Consider `COCC(=O)N[C@H]1CC[C@H](NC(=O)c2c(C)[nH]c3c(-c4cc(C(F)(F)F)ccc4OCC4CC4)ncnc23)CC1` [Example E95, 4-[2-(Cyclopropylmethoxy)-5-(trifluoromethyl)phenyl]-N-{trans-4-[(methoxyacetyl)amino]cyclohexyl}-6-methyl-5H-pyrrolo[3,2-d]pyrimidine-7-carboxamide], for which the IC50 on PDE4B1 is less than 0.1 µM; on PDE5A1, less than 0.001 µM.

In the case of `Cc1ccc(OCC2CC2)c(-c2ncnc3c(C(=O)N[C@@H]4CCC[C@H]4O)c(C)[nH]c23)c1` [Example E178, 4-[2-(Cyclopropylmethoxy)-5-methylphenyl]-N-[(1R,2R)-2-hydroxycyclopentyl]-6-methyl-5H-pyrrolo[3,2-d]pyrimidine-7-carboxamide], the IC50 was 0.1 to 1 µM at PDE4B1 and less than 0.001 µM on PDE5A1.

`CC(=O)N[C@H]1CC[C@H](NC(=O)c2c(C)[nH]c3c(-c4cc(C(F)(F)F)ccc4OCC4CC4)ncnc23)CC1` [Example E93, N-[trans-4-(acetylamino)cyclohexyl]-4-[2-(cyclopropylmethoxy)-5-(trifluoromethyl)phenyl]-6-methyl-5H-pyrrolo[3,2-d]pyrimidine-7-carboxamide]: the results for the IC50 on PDE4B1 and on PDE5A1 were less than 0.1 µM and less than 0.001 µM, respectively.

As for `Cc1ccc(OCC2CC2)c(-c2ncnc3c(C(=O)N[C@H]4CC[C@@H](NC(=O)CO)CC4)c(C)[nH]c23)c1` [Example F55, 4-[2-(Cyclopropylmethoxy)-5-methylphenyl]-N-{cis-4-[(hydroxyacetyl)amino]cyclohexyl}-6-methyl-5H-pyrrolo[3,2-d]pyrimidine-7-carboxamide], the values for the IC50 at PDE4B1 and on PDE5A1 were less than 0.1 µM and less than 0.001 µM, respectively.

In the case of `COCC(=O)N[C@H]1CC[C@H](NC(=O)c2c(C)[nH]c3c(-c4cc(C(F)F)ccc4OCC4CC4)ncnc23)C1` [Example P91, 4-[2-(Cyclopropylmethoxy)-5-(difluoromethyl)phenyl]-N-{(1S,3S)-3-[(methoxyacetyl)amino]cyclopentyl}-6-methyl-5H-pyrrolo[3,2-d]pyrimidine-7-carboxamide], the IC50 on PDE4B1 is less than 0.1 µM; at PDE5A1, less than 0.001 µM.

With `COCC(=O)N[C@H]1CC[C@H](NC(=O)c2c(C)[nH]c3c(-c4cc(F)ccc4OCC4CC4)ncnc23)CC1` [Example E43, 4-[2-(Cyclopropylmethoxy)-5-fluorophenyl]-N-{trans-4-[(methoxyacetyl)amino]cyclohexyl}-6-methyl-5H-pyrrolo[3,2-d]pyrimidine-7-carboxamide], the IC50 was less than 0.1 µM on PDE4B1 and less than 0.001 µM at PDE5A1.

Source of the values: patent US9376442B2, “Methylpyrrolopyrimidinecarboxamides” (Takeda GmbH, priority 2009, dated 2016).
